{
  "source": "patent US20090163548A1",
  "about": "“Method of using and comopositions comprising immunomodulatory compounds for the treatment and management of myeloproliferative diseases” (priority 2004, published 2009)",
  "key": {"[1]": {"conditions": "dog, in vivo", "procedure": "The effects of 3-(4-amino-1-oxo-1,3-dihydro-isoindol-2-yl)-piperidine-2,6-dione on cardiovascular and respiratory function were investigated in anesthetized dogs. Two groups of Beagle dogs (2/sex/group) were used. One group received three doses of vehicle only and the other received three ascending doses of 3-(4-amino-1-oxo-1,3-dihydro-isoindol-2-yl)-piperidine-2,6-dione (2, 10, and 20 mg/kg). In all cases, doses of 3-(4-amino-1-oxo-1,3-dihydro-isoindol-2-yl)-piperidine-2,6-dione or vehicle were successively administered via infusion through the jugular vein separated by intervals of at least 30 minutes.\nThe only statistically significant difference between the vehicle and treatment groups was a small increase in arterial blood pressure (from 94 mmHg to 101 mmHg) following administration of the low dose of 3-(4-amino-1-oxo-1,3-dihydro-isoindol-2-yl)-piperidine-2,6-dione."}, "TNF-α [2]": {"tested_on": "TNF-α", "test": "Inhibition of TNF-α production following LPS-stimulation of human PBMC", "assay_type": "cell-based", "conditions": "LPS-stimulated, read-out: IC50 for inhibiting production of TNF-α following LPS-stimulation of PBMC", "from_the_text": "(§1) Inhibition of TNF-α production following LPS-stimulation of human PBMC and human whole blood by 3-(4-amino-1-oxo-1,3-dihydro-isoindol-2-yl)-piperidine-2,6-dione or thalidomide was investigated in vitro (Muller et al., Bioorg. Med. Chem. Lett. 9:1625-1630, 1999)."}, "TNF-α [3]": {"tested_on": "TNF-α", "test": "Inhibition of TNF-α production following LPS-stimulation of human whole blood", "assay_type": "cell-based", "conditions": "LPS-stimulated, read-out: IC50 for inhibiting production of TNF-α following LPS-stimulation of human whole blood", "from_the_text": "as §1"}, "various cytokines": {"tested_on": "various cytokines", "test": "In vitro studies of effects on the production of various cytokines, comparison with thalidomide", "assay_type": "cell-based", "conditions": "in all in vitro cytokine production studies", "from_the_text": "The pharmacological properties of 3-(4-amino-1-oxo-1,3-dihydro-isoindol-2-yl)-piperidine-2,6-dione, including activity comparisons with thalidomide, have been characterized in in vitro studies. Studies examined the effects of 3-(4-amino-1-oxo-1,3-dihydro-isoindol-2-yl)-piperidine-2,6-dione or thalidomide on the production of various cytokines. […] In addition, a safety pharmacology study of 3-(4-amino-1-oxo-1,3-dihydro-isoindol-2-yl)-piperidine-2,6-dione has been conducted in dogs and the effects of 3-(4-amino-1-oxo-1,3-dihydro-isoindol-2-yl)-piperidine-2,6-dione on ECG parameters were examined further as part of three repeat-dose toxicity studies in primates."}},
  "data": [
    {"smiles": "Nc1cccc2c1CN(C1CCC(=O)NC1=O)C2=O", "note": "(stereo not shown) [3-(4-amino-1-oxo-1,3-dihydro-isoindol-2-yl)-piperidine-2,6-dione]", "values": [
      {"measurement": "Arterial blood pressure after administration", "setting": "[1]; both, Beagle, 2 mg/kg", "result": 101, "unit": "mmHg"},
      {"measurement": "Duration of the increase in arterial blood pressure", "setting": "[1]; both, Beagle, 2 mg/kg", "result": "approximately 15 minutes"},
      {"measurement": "Deviations in femoral blood flow, respiratory parameters, and Qtc interval", "setting": "[1]", "result": "not considered treatment-related"},
      {"measurement": "Increase in arterial blood pressure at higher doses", "setting": "[1]", "result": "not seen at higher doses"},
      {"measurement": "IC50", "setting": "TNF-α [2]", "result": "~100", "unit": "nM"},
      {"measurement": "IC50", "setting": "TNF-α [3]", "result": "~480", "unit": "nM"},
      {"measurement": "Potency relative to thalidomide", "setting": "various cytokines", "result": "at least 50 times"}
    ]}
  ]
}
